Residues, ends and D or L forms follow the SMILES beside them. *: point of attachment. Biotin = O=C1N[C@H]2[C@H](CS[C@H]2CCCCC(=O)*)N1; Ahx = NCCCCCC(=O)O
Columns and labels:
[1] = system: C57BL/6 mice, partial body irradiation; assay: GI-targeted murine partial body irradiation model, survival; assay type: in vivo, mouse; conditions: 10 mg/kg intraperitoneally daily from 24 hrs post exposure up to 21 days, preliminary
From the text: In this study, C557BL/6 mice (n=40; 20 females and 20 males) were exposed to partial body irradiation by one dose exposure of […] at 50cGy/min using a 60 Co gamma source. A Farmer ionization chamber was used to provide real-time quantification of the radiation dose. Animals were irradiated in a custom designed restrainer where their left pelvic limb was extended and maintained in position to permit shielding with a cerrobend structure. This method of shielding 5% of bone marrow serves to rescue mice from hematopoietic syndromel. Initiating 24 hrs post exposure, animals were treated daily with 0.9% sodium chloride (vehicle) or 10 mg/kg ACTT 1 (ACT1 polypeptide) delivered intraperitoneally for up to 21 days. Half of the animals (subtracting those that died on days 1-7) were euthanized on day 8 to allow for histological examination of GI organs (histology results pending).

[2] = Stability study of ACT peptide in drug product gel; assay type: physicochemical; conditions: for ACT peptide remaining, % of the label claim (initial concentration): drug product with 1.25% hydroxyethylcellulose
Method: Derived through in vitro and in vivo studies, these stabilizers and excipients are incorporated into the drug product since they are non-irritating, non-staining, and non-immunogenic. […] The ACT peptide within the drug product containing 1.25% hydroxyethylcellulose only dropped to 98% of the label claim (i.e., initial concentration) when stored at 5° C. for three months and to 84% of the label claim when stored at 25° C. for the same duration. In one aspect of the invention, edetate disodium (EDTA) and Mannitol are incorporated within the drug product to provide stability to the ACT1 peptide. In some embodiments of the invention, the Mannitol is present in the formulation at 0.01% (w/w) to 1.6% (w/w), 0.01% (w/w) to 1.5% (w/w), 0.01% (w/w) to 1.4% (w/w), 0.01% (w/w) to 1.3% (w/w), 0.01% (w/w) to 1.2% (w/w), 0.01% (w/w) to 1.1% (w/w), 0.01% (w/w) to 1.0% (w/w), 0.01% (w/w) to 0.9% (w/w), 0.01% (w/w) to 0.8% (w/w), 0.01% (w/w) to 0.7% (w/w), 0.01% (w/w) to 0.6% (w/w), 0.01% (w/w) to 0.5% (w/w), 0.01% (w/w) to 0.4% (w/w), 0.01% (w/w) to 0.3% (w/w), 0.01% (w/w) to 0.2% (w/w), 0.01% (w/w) to 0.1% (w/w), or 0.01% (w/w) to 0.0.05% (w/w). In specific embodiments, the Mannitol is present in the formulation at about 0.05% (w/w).

| Molecule | Survival / early mortality (Kaplan Maier analysis) compared to saline [1] | Survival / early mortality (Kaplan Maier analysis) compared to saline ([1]; listed as ACTI polypeptide) | ACT peptide remaining, % of the label claim (initial concentration) ([2]; stored at 5° C. for three months) | ACT peptide remaining, % of the label claim (initial concentration) ([2]; stored at 25° C. for three months) | Stability in Hydroxyethylcellulose, 250 HHX (1.25%) compared to Pluronic gels ([2]; gelling agent comparison) |
| --- | --- | --- | --- | --- | --- |
| RPRPDDLEI [ACT1 polypeptide] | has an early effect on animal mortality | increased survival | – | – | – |
| CC[C@H](C)[C@H](NC(=O)[C@H](CCC(=O)O)NC(=O)[C@H](CC(C)C)NC(=O)[C@H](CC(=O)O)NC(=O)[C@H](CC(=O)O)NC(=O)[C@@H]1CCCN1C(=O)[C@H](CCCNC(=N)N)NC(=O)[C@@H]1CCCN1C(=O)[C@H](CCCNC(=N)N)NC(=O)[C@H](CCCCN)NC(=O)[C@H](CCCCN)NC(=O)[C@H](Cc1c[nH]c2ccccc12)NC(=O)[C@@H]1CCCN1C(=O)[C@H](CCCCN)NC(=O)[C@H](CCCNC(=N)N)NC(=O)[C@H](CCCNC(=N)N)NC(=O)[C@H](CC(N)=O)NC(=O)[C@@H]1CCCN1C(=O)[C@H](Cc1ccccc1)NC(=O)[C@H](Cc1c[nH]c2ccccc12)NC(=O)[C@@H](NC(=O)[C@H](CCCCN)NC(=O)[C@@H]1CCCN1C(=O)[C@H](CCC(N)=O)NC(=O)[C@H](CCCNC(=N)N)NC(=O)CCCCCNC(=O)CCCC[C@@H]1SC[C@@H]2NC(=O)N[C@@H]21)[C@@H](C)CC)C(=O)O [Peptide 328967] ({Biotin-Ahx}-RQPKIWFPNRRKPWKKRPRPDDLEI-OH) | – | – | 98% | 84% | more stable |
